# US5403930A, “Substituted salicylic acids” (Pharmacia AB, priority 1991, dated 1995)
# Key:
# human lymphocytes = experiment: Concanavalin A-induced proliferation of human lymphocytes ([3H]-thymidine); format: cell-based; conditions: Lymphocyte, 72 h, 250 μM test compound, 2.5 μg/ml Concanavalin A, 3 days, 2 experiments
# Description: Effect of Compounds on Human Lymphocyte Proliferation Peripheral blood mononuclear cells were isolated from heparinized blood from healthy volunteers by density gradient centrifugation as described by Bain and Pshyk, Transplantation Proc, 4:163-164 (1972). Cell proliferation induced by Concanavalin A was measured in a standard assay such as described in Soderstrom et at., Scand J Immunol, 32:503-516 (1990) using 5% fetal bovine serum in the culture medium. The reaction mixture (final concentrations) consisted of 200 000 cells stimulated with 2.5 μg/ml Concanavalin A and test compounds in a total volume of 0.2 ml. The test compounds were added at the start of the assay, which was run for a total of three days with addition ofradioactive [3H]-thymidine during the last 18 h. Cell bound radioactivity was measured in a liquid scintillation counter.
# Human Granulocytes [1] = experiment: FMLP-induced superoxide production of human granulocytes, 10 μM test compound; format: cell-based; conditions: 10 nM FMLP, 400 000 granulocytes
# Description: Effects of Test Compounds on Superoxide Production of Human Granulocytes
# (§1) Granulocytes were isolated from the heparinized blood from healthy volunteers. The superoxide assay was essentially that of J. M. McCord and I Fridovich (J. Biol. Chem. 244:6049-6055 (1969)) as modified by G Carlin et al. (Pharmacol. Toxicol 65:121-127 (1989)). The reaction mixture contained (final concentrations) 125 μM cytochrome C in Dulbeccos phosphate buffer with Mg and Ca, 10 μM test compound and 400 000 granulocytes treated with 5 μg/ml of cytochalasin B immediately before the experiment. This reaction mixture was preincubated at 37° C. for 10 minutes, whereafter 10 nM N-formyl-L-methionyl-L-leucyl-L-phenylalanine was added to start the reaction, making the final volume 1 ml. After 10 minutes the tubes were centrifuged and the absorbance of the supernatant at 540 and 550 nm was measured. The superoxide production was expressed as the difference in absorbance at these wavelengths.
# [2] = rheumatoid arthritis, ulcerative colitis, ankylosing spondylitis, reactive arthritis, psoriasis; cited from earlier work
# T-lymphocytes = conditions: cited from earlier work
# Human Granulocytes [3] = experiment: FMLP-induced superoxide production of human granulocytes, 100 μM test compound; format: cell-based; conditions: 100 nM FMLP, 600 000 granulocytes
# Description: Effects of Test Compounds on Superoxide Production of Human Granulocytes at 100 um Concentration
# as §1, with “et at.” for “et al.”, “Ca, 100” for “Ca, 10”, “and 600” for “and 400”, “whereafter 100” for “whereafter 10”
compound,measurement,setting,value
"O=C(O)c1cc(/N=N/c2ccc(S(=O)(=O)Nc3ccccn3)cc2)ccc1O [Sulfasalazine, reference compound]",inhibition at 250 µM,human lymphocytes,53.7%
same,inhibition at 10 µM,Human Granulocytes [1],63.5%
same,Clinical effectiveness in autoimmune diseases,[2],clinically effective
same,Inhibition of activation and proliferation of T-lymphocytes,T-lymphocytes,inhibits activation and proliferation of T-lymphocytes
same,inhibition at 100 µM,Human Granulocytes [3],65.4%
